Results on six molecules are retold here after ChEMBL document CHEMBL1141886, “QSAR study on the antibacterial activity of some sulfa drugs: building blockers of Mannich bases” (2005).

What all share (assay type): functional
Experiment [1] concerns Escherichia coli. As to the kind of experiment: Antibacterial activity of compound against Escherichia coli at 80 ug/mL expressed as zone of inhibition.
Experiment [2] relates to Bacillus subtilis. As to the kind of experiment: Antibacterial activity of compound against Bacillus subtilis at 40 ug/mL expressed as zone of inhibition.
In experiment [3] the test system is Bacillus subtilis. As to the kind of experiment: Antibacterial activity of compound against Bacillus subtilis at 10 ug/mL expressed as zone of inhibition.
In experiment [4] the test system is Escherichia coli. Kind of experiment: Antibacterial activity of compound against Escherichia coli at 10 ug/mL expressed as zone of inhibition.
In experiment [5] the test system is Bacillus subtilis. As to the kind of experiment: Antibacterial activity of compound against Bacillus subtilis at 80 ug/mL expressed as zone of inhibition.
Experiment [6] deals with Bacillus subtilis. Kind of experiment: Antibacterial activity of compound against Bacillus subtilis at 20 ug/mL expressed as zone of inhibition.
Experiment [7] has as its system Escherichia coli. As to the kind of experiment: Antibacterial activity of compound against Escherichia coli at 20 ug/mL expressed as zone of inhibition.
The test system of experiment [8] is Escherichia coli. As to the kind of experiment: Antibacterial activity of compound against Escherichia coli at 40 ug/mL expressed as zone of inhibition.
In experiment [9] the test system is Klebsiella pneumoniae. Kind of experiment: Antibacterial activity of compound against Klebsiella pneumoniae at 10 ug/mL expressed as zone of inhibition.
The test system of experiment [10] is Klebsiella pneumoniae. Kind of experiment: Antibacterial activity of compound against Klebsiella pneumoniae at 20 ug/mL expressed as zone of inhibition.
The test system of experiment [11] is Klebsiella pneumoniae. Kind of experiment: Antibacterial activity of compound against Klebsiella pneumoniae at 40 ug/mL expressed as zone of inhibition.
The subject of experiment [12] is Klebsiella pneumoniae. As to the kind of experiment: Antibacterial activity of compound against Klebsiella pneumoniae at 80 ug/mL expressed as zone of inhibition.

In the case of `Cc1cc(C)nc(NS(=O)(=O)c2ccc(N)cc2)n1` [SULFAMETHAZINE], the Zone of inhibition with Escherichia coli [1] was found to be 18.56 mm; in the experiment on Bacillus subtilis [2] it was 21.76 mm; in the experiment on Bacillus subtilis [3] it was 15.4 mm; with Escherichia coli [4], 15.1 mm; with Bacillus subtilis [5] it was 22.08 mm; with Bacillus subtilis [6], 19.96 mm. The Zone of inhibition in the experiment with Escherichia coli [7] worked out at 16.9 mm; with Escherichia coli [8], 18.8 mm.
Regarding `Cc1nnc(NS(=O)(=O)c2ccc(N)cc2)s1` [SULFAMETHIZOLE], the Zone of inhibition is listed as 30.3 mm with Klebsiella pneumoniae [9]; 25.5 mm in the experiment on Escherichia coli [1]; 19.46 mm in the experiment on Bacillus subtilis [2]; 18.06 mm in the experiment with Bacillus subtilis [3]; 16.2 mm in the experiment on Escherichia coli [4]; 20.5 mm in the experiment on Bacillus subtilis [5]. Besides, the Zone of inhibition in the experiment with Klebsiella pneumoniae [10] is recorded as 29.86 mm; in the experiment with Klebsiella pneumoniae [11], 29.6 mm; in the experiment on Klebsiella pneumoniae [12] it was 27.76 mm; with Bacillus subtilis [6], 19.13 mm; in the experiment with Escherichia coli [7], 17.43 mm; with Escherichia coli [8], 22.2 mm.
With `N=C(N)NS(=O)(=O)c1ccc(N)cc1` [SULFAGUANIDINE], the Zone of inhibition in the experiment with Bacillus subtilis [2] worked out at 17.9 mm; with Bacillus subtilis [3], 11.23 mm; with Bacillus subtilis [5], 21.76 mm; in the experiment with Bacillus subtilis [6], 10.9 mm.
Turning to `Cc1cc(NS(=O)(=O)c2ccc(N)cc2)no1` [SULFAMETHOXAZOLE], the Zone of inhibition with Klebsiella pneumoniae [9] was determined as 11.63 mm; in the experiment with Escherichia coli [1] it was 24.03 mm; in the experiment on Bacillus subtilis [2], 27.43 mm; in the experiment on Bacillus subtilis [3], 22.8 mm; with Escherichia coli [4] it was 19.63 mm; with Bacillus subtilis [5], 27.9 mm. The Zone of inhibition with Klebsiella pneumoniae [10] is on record as 14.92 mm; with Klebsiella pneumoniae [11], 22.43 mm; with Klebsiella pneumoniae [12], 26.46 mm; in the experiment on Bacillus subtilis [6] it was 25.46 mm; with Escherichia coli [7], 22.93 mm; with Escherichia coli [8] it was 23.23 mm.
As for `Nc1ccc(S(N)(=O)=O)cc1` [SULFANILAMIDE], the Zone of inhibition in the experiment on Escherichia coli [1] was 25.55 mm; in the experiment on Escherichia coli [4], 20.43 mm; in the experiment on Escherichia coli [7] it was 22.3 mm; in the experiment with Escherichia coli [8], 22.86 mm.
As to `Nc1ccc(S(=O)(=O)Nc2ncccn2)cc1` [SULFADIAZINE], the Zone of inhibition is recorded as 27.03 mm with Klebsiella pneumoniae [9]; 24.5 mm in the experiment on Escherichia coli [1]; 26.36 mm with Bacillus subtilis [2]; 20.86 mm in the experiment with Bacillus subtilis [3]; 9.7 mm in the experiment with Escherichia coli [4]; 25.93 mm with Bacillus subtilis [5]. Also, the Zone of inhibition with Klebsiella pneumoniae [10] was 29.23 mm; in the experiment on Klebsiella pneumoniae [11] it was 29.53 mm; in the experiment on Klebsiella pneumoniae [12], 25.63 mm; in the experiment on Bacillus subtilis [6] it was 27.23 mm; in the experiment with Escherichia coli [7], 17.2 mm; in the experiment with Escherichia coli [8], 21.2 mm.
